Converted amounts (≈) assume the structure as drawn. Like-named read-outs stand apart in the source and are kept apart here. Blank lines part the entries; values can stand above or below the compound they belong to.
Key:
[1] = system: Escherichia coli (507/2019); assay: MIC/MBC, broth micro-dilution; assay type: cell-based; conditions: for MIC: 18 h
Experimental: (§1) The minimum inhibitory concentration of sCur was determined by the broth microdilution method as described earlier with minor modifications.
(§2) Briefly, Staphylococcus aureus, Staphylococcus epidermidis, Klebsiella pneumoniae, Escherichia coli, and Pseudomonas aeruginosa were grown in 10 ml BHI broth aerobically for 18 h. Bacterial culture (500 µl) was then diluted to 1.5 ml fresh BHI broth. […] The stock was diluted in a series of two-fold dilutions ranging from 0.5 to 512 µg/ml in sterile BHI broth in microtiter wells. Each well of the 96-well microtiter plate was then inoculated with 190 µl of standardized cell suspension (10^5 CFU/ml) and incubated at 37 °C for next 18 h along with the 20 µl sCur suspension. The MIC was defined as the lowest concentration of sCur at which no obvious growth was observed.

[2] = system: Klebsiella pneumoniae (10,825/2019); assay: MIC/MBC, broth micro-dilution; assay type: cell-based; conditions: for MIC: 18 h
Experimental: as §1, §2

[3] = system: Pseudomonas aeruginosa (2,412/2019); assay: MIC/MBC, broth micro-dilution; assay type: cell-based; conditions: for MIC: 18 h
Experimental: as §1, §2

[4] = system: Staphylococcus aureus (MRSA, 2,862/2019); assay: MIC/MBC, broth micro-dilution; assay type: cell-based; conditions: for MIC: 18 h
Experimental: as §1, §2

[5] = system: Escherichia coli (ATCC25922); assay: MIC/MBC, broth micro-dilution; assay type: cell-based; conditions: for MIC: ATCC25922, 18 h
Experimental: as §1
(§3) Briefly, Staphylococcus aureus, Staphylococcus epidermidis, Klebsiella pneumoniae, Escherichia coli, and Pseudomonas aeruginosa were grown in 10 ml BHI broth aerobically for 18 h. Bacterial culture (500 µl) was then diluted to 1.5 ml fresh BHI broth. The sCur stock solution (1,024 µg/ml) was used for the study. The stock was diluted in a series of two-fold dilutions ranging from 0.5 to 512 µg/ml in sterile BHI broth in microtiter wells. Each well of the 96-well microtiter plate was then inoculated with 190 µl of standardized cell suspension (10^5 CFU/ml) and incubated at 37 °C for next 18 h along with the 20 µl sCur suspension. The MIC was defined as the lowest concentration of sCur at which no obvious growth was observed. Positive controls were having either ciprofloxacin or meropenem (for gram positive and gram negative respectively) while the sterile broth served as negative control and all the experiments were performed in triplicate.

[6] = system: Klebsiella pneumoniae (ATCC700603); assay: MIC/MBC, broth micro-dilution; assay type: cell-based; conditions: for MIC: ATCC700603, 18 h
Experimental: as §1, §3

[7] = system: Pseudomonas aeruginosa (ATCC25619); assay: MIC/MBC, broth micro-dilution; assay type: cell-based; conditions: for MIC: ATCC25619, 18 h
Experimental: as §1, §3

[8] = system: Staphylococcus aureus (ATCC29213); assay: MIC/MBC, broth micro-dilution; assay type: cell-based; conditions: for MIC: ATCC29213, 18 h
Experimental: as §1, §3

[9] = system: Staphylococcus epidermidis (ATCC35984); assay: MIC/MBC, broth micro-dilution; assay type: cell-based; conditions: for MIC: ATCC35984, 18 h
Experimental: as §1, §3

[10] = system: Gram-positive and Gram-negative MDR isolates; assay: MIC, broth micro-dilution, summary for MDR isolates; assay type: cell-based
Experimental: as §1, §2

[11] = system: Staphylococcus aureus (MRSA, 2,862/2019); assay: microbe, parasite or virus in culture
Experimental: (§4) Serial dilutions of with these antibiotics were mixed in cation-adjusted Muller Hinton broth. The inoculum was prepared from the overnight grown colonies on MHA. The final bacterial concentration after inoculation was […].

[12] = system: Escherichia coli (507/2019); assay: Modified MIC in combination, checkerboard titration; assay type: cell-based
Experimental: as §4

[13] = system: Klebsiella pneumoniae (10,825/2019); assay: as above; assay type: cell-based
Experimental: as §4

[14] = system: Pseudomonas aeruginosa (2,412/2019); assay: as above; assay type: cell-based
Experimental: as §4

[15] = system: K. pneumoniae clinical isolate; assay: DPH steady-state fluorimetry, membrane dynamics; assay type: cell-based, Klebsiella pneumoniae; conditions: vancomycin alone; sCur at MIC alone 120 min; 8 µg/ml sCur with 16 µg/ml vancomycin 60 min; untreated 93.44 ± 2.646
Experimental: (§5) We utilized the previously described method. Multidrug-resistant clinical isolates of Staphylococcus aureus, Staphylococcus epidermidis, Klebsiella pneumoniae, Escherichia coli, and Pseudomonas aeruginosa were treated with MIC concentration of sCur, vancomycin, and in combination (here data of only Klebsiella pneumoniae is shown). We incubated the treated cells for 120 min with shaking (100 rpm) at 37 °C, with subsequent harvesting. The pellet was re-suspended and re-pelleted. We fixed the pellet with 0.4% paraformaldehyde with subsequent resuspension in PBS. We later on incubated the re-suspended cells with 0.5 mM 1, 6-diphenyl-1, 3, 5-hexatriene (DPH) at 37 °C for 60 min, pelleted and washed thrice with PBS. The fluorescence intensity was monitored spectrophotometrically employing Synergy H1 Hybrid Multi-Mode Reader at 350 nm (excitation) and 425 nm (emission).

[16] = system: MRSA clinical isolate; assay: DPH steady-state fluorimetry, membrane dynamics; assay type: cell-based, Staphylococcus aureus; conditions: vancomycin alone; 8 µg/ml sCur with 16 µg/ml vancomycin 60 min; untreated 89.86 ± 2.07
Experimental: as §5

[17] = system: Klebsiella pneumoniae; assay: DPH flow cytometry, membrane dynamics; assay type: cell-based; conditions: 256 µg/ml
[18] = system: multi-drug resistant K. pneumoniae and S. aureus isolates; assay: DiSC3-5 steady-state fluorimetry, membrane depolarization; assay type: cell-based, Klebsiella pneumoniae and Staphylococcus aureus; conditions: 8 µg/ml sCur with 16 µg/ml vancomycin, 120 min; vancomycin alone; untreated 18.67 ± 2.082
[19] = system: Klebsiella pneumoniae; assay: DCFH-DA flow cytometry, ROS production; assay type: cell-based; conditions: single agents, time not stated; untreated 0.1%
[20] = system: S. aureus and K. pneumoniae cells; assay: Hydroxyl radical estimation with HPF dye; assay type: cell-based, Staphylococcus aureus and Klebsiella pneumoniae; conditions: one hour treatment, compared to untreated cells
Experimental: The fluorescent reporter dye 3′-(p-hydroxyphenyl) fluorescein (HPF) was used for […] free radical detection as described previously. Overnight cultures were diluted 1:250 with 25 ml of BHI broth in 250 ml flasks and incubated at 37 °C, with shaking (200 rpm). Cells were grown until they reached the OD600 ~ 0.3. Five hundred microliters sample was taken from the flasks and transferred to an 8-well plate for treatments. […] The supernatant was exchanged with phosphate buffered saline supplemented with […] HPF with incubation in the dark at room temperature for 15 min and re-pelleted by centrifugation at 10,000 rpm. The supernatant was removed and replaced with 1 × PBS for fluorimetry measurements.

[21] = system: Klebsiella pneumoniae; assay: DiSC3-5 flow cytometry, membrane depolarization; conditions: 256 µg/ml
[22] = antibiotic with native curcumin (8 µg/ml)

SMILES: CN[C@H](CC(C)C)C(=O)N[C@H]1C(=O)N[C@@H](CC(N)=O)C(=O)N[C@H]2C(=O)N[C@H]3C(=O)N[C@H](C(=O)N[C@H](C(=O)O)c4cc(O)cc(O)c4-c4cc3ccc4O)[C@H](O)c3ccc(c(Cl)c3)Oc3cc2cc(c3O[C@@H]2O[C@H](CO)[C@@H](O)[C@H](O)[C@H]2O[C@H]2C[C@](C)(N)[C@H](O)[C@H](C)O2)Oc2ccc(cc2Cl)[C@H]1O [Vancomycin, vancomycin]
MBC [1]: ≥ 1020 µg/mL
MIC [1]: 512 µg/mL (≈ 353 µM)
MBC [2]: ≥ 1020 µg/mL
MIC [2]: 512 µg/mL (≈ 353 µM)
MBC [3]: ≥ 1020 µg/mL
MIC [3]: 1020 µg/mL (≈ 707 µM)
MBC [4]: 2 µg/mL (≈ 1.38 µM)
MIC [4]: 1 µg/mL (≈ 0.69 µM)
MBC ([5]; ATCC25922): ≥ 1020 µg/mL
MIC [5]: 256 µg/mL (≈ 177 µM)
MBC ([6]; ATCC700603): ≥ 1020 µg/mL
MIC [6]: 256 µg/mL (≈ 177 µM)
MBC ([7]; ATCC25619): ≥ 1020 µg/mL
MIC [7]: 1020 µg/mL (≈ 707 µM)
MBC ([8]; ATCC29213): 2 µg/mL (≈ 1.38 µM)
MIC [8]: 0.5 µg/mL (≈ 0.345 µM)
MBC ([9]; ATCC35984): 1 µg/mL (≈ 0.69 µM)
MIC [9]: 0.25 µg/mL (≈ 0.173 µM)
MIC [10]: 512 µg/mL (≈ 353 µM)
MIC ([11]; read-out: Modified MIC): 1 µg/mL (≈ 0.69 µM)
MIC ([11]; read-out: modified MIC): 0.25 µg/mL (≈ 0.173 µM)
modified MIC [12, 22]: 512 µg/mL
modified MIC ([12]; antibiotic with sCur (8 µg/ml)): 8 µg/mL
modified MIC [13, 22]: 512 µg/mL
modified MIC ([13]; antibiotic with sCur (8 µg/ml)): 16 µg/mL
modified MIC [14, 22]: 1024 µg/mL
modified MIC ([14]; antibiotic with sCur (8 µg/ml)): 16 µg/mL
DPH fluorescence intensity [15]: 89.21 ± 2.614 a.u.
DPH fluorescence intensity [16]: 84.24 ± 1.875 a.u.
right shifting of the population, DPH [17]: mild right shifting
DiSC3-5 fluorescence intensity [18]: 32.07 ± 5.224 a.u.
cell population that took up DCFDA, ROS generation (gate M3) [19]: 38.6%
HPF fluorescence, OH radical production [20]: fair increase in the fluorescence
right shifting of the population, DiSC3-5 [21]: 0.6%

MIC ([1]; read-out: MIC): 512 µg/mL (≈ 1390 µM)
MIC ([2]; read-out: MIC): 512 µg/mL (≈ 1390 µM)
MIC ([3]; read-out: MIC): ≥ 1020 µg/mL
MIC ([4]; read-out: MIC): 256 µg/mL (≈ 695 µM)
MIC ([5]; read-out: MIC): 256 µg/mL (≈ 695 µM)
MIC ([6]; read-out: MIC): 256 µg/mL (≈ 695 µM)
MIC ([7]; read-out: MIC): 512 µg/mL (≈ 1390 µM)
MIC ([8]; read-out: MIC): 128 µg/mL (≈ 347 µM)
MIC ([9]; read-out: MIC): 128 µg/mL (≈ 347 µM)
SMILES: COc1cc(/C=C/C(=O)CC(=O)/C=C/c2ccc(O)c(OC)c2)ccc1O [Curcumin, curcumin]
MBC ([1]; read-out: MBC): ≥ 1020 µg/mL
MBC ([2]; read-out: MBC): ≥ 1020 µg/mL
MBC ([3]; read-out: MBC): ≥ 1020 µg/mL
MBC ([4]; read-out: MBC): ≥ 1020 µg/mL
MBC ([5]; ATCC25922, read-out: MBC): ≥ 1020 µg/mL
MBC ([6]; ATCC700603, read-out: MBC): ≥ 1020 µg/mL
MBC ([7]; ATCC25619, read-out: MBC): ≥ 1020 µg/mL
MBC ([8]; ATCC29213, read-out: MBC): ≥ 1020 µg/mL
MBC ([9]; ATCC35984, read-out: MBC): ≥ 1020 µg/mL
right shifting of the population, DPH [17]: significant right shifting
right shifting of the population, DiSC3-5 [21]: 35%

MIC ([5]; read-out: MIC): 0.25 µg/mL (≈ 0.754 µM)
MIC ([6]; read-out: MIC): 0.5 µg/mL (≈ 1.51 µM)
MIC ([7]; read-out: MIC): 0.5 µg/mL (≈ 1.51 µM)
MIC ([8]; read-out: MIC): 0.25 µg/mL (≈ 0.754 µM)
MIC ([9]; read-out: MIC): < 0.25 µg/mL
MIC ([10]; MDR isolates, antibiotics alone, read-out: MIC): 64 µg/mL (≈ 193 µM)
SMILES: O=C(O)c1cn(C2CC2)c2cc(N3CCNCC3)c(F)cc2c1=O [Ciprofloxacin, ciprofloxacin]
MBC ([1]; read-out: MBC): 64 µg/mL (≈ 193 µM)
MBC ([2]; read-out: MBC): 128 µg/mL (≈ 386 µM)
MBC ([3]; read-out: MBC): 256 µg/mL (≈ 773 µM)
MBC ([4]; read-out: MBC): 64 µg/mL (≈ 193 µM)
MBC ([5]; ATCC25922, read-out: MBC): 0.5 µg/mL (≈ 1.51 µM)
MBC ([6]; ATCC700603, read-out: MBC): 1 µg/mL (≈ 3.02 µM)
MBC ([7]; ATCC25619, read-out: MBC): 1 µg/mL (≈ 3.02 µM)
MBC ([8]; ATCC29213, read-out: MBC): 0.5 µg/mL (≈ 1.51 µM)
MBC ([9]; ATCC35984, read-out: MBC): 0.5 µg/mL (≈ 1.51 µM)

MIC ([1]; read-out: MIC): 64 µg/mL (≈ 167 µM)
MIC ([5]; read-out: MIC): 0.25 µg/mL (≈ 0.652 µM)
MIC ([6]; read-out: MIC): 0.5 µg/mL (≈ 1.3 µM)
MIC ([7]; read-out: MIC): 0.5 µg/mL (≈ 1.3 µM)
modified MIC [12, 22]: 64 µg/mL
modified MIC ([12]; antibiotic with sCur (8 µg/ml)): 1 µg/mL
modified MIC ([13]; antibiotic with sCur (8 µg/ml)): 2 µg/mL
modified MIC ([14]; antibiotic with sCur (8 µg/ml)): 4 µg/mL
SMILES: C[C@@H](O)[C@H]1C(=O)N2C(C(=O)O)=C(S[C@@H]3CN[C@H](C(=O)N(C)C)C3)[C@H](C)[C@H]12 [Meropenem, meropenem]
MBC ([2]; read-out: MBC): 256 µg/mL (≈ 668 µM)
MBC ([3]; read-out: MBC): 256 µg/mL (≈ 668 µM)
MBC ([5]; ATCC25922, read-out: MBC): 1 µg/mL (≈ 2.61 µM)
MBC ([6]; ATCC700603, read-out: MBC): 1 µg/mL (≈ 2.61 µM)
MBC ([7]; ATCC25619, read-out: MBC): 1 µg/mL (≈ 2.61 µM)
